# Data from ChEMBL document CHEMBL5674860, “Optimized Dual-Glo Assay to identify co-culture-induced drug vulnerabilities in 3D CRC models” (2024).
# What was measured:
# Type in all cases: functional, Homo sapiens
# Design in all cases: dose or concentration left out as unconfirmed
# Colon cancer organoid [1] = test: Optimized Dual-Glo assay to identify co-culture induced drug vulnerabilities using donated chemical probes and chemogenomics kinase set in O14 CRC organoid and F14 CAF mono and co-culture. […] Cell viability is reported both mono and co-culture models.
# Colon cancer organoid [2] = test: Optimized Dual-Glo assay to identify co-culture induced drug vulnerabilities using donated chemical probes and chemogenomics kinase set in O06 CRC organoid and F06 CAF mono and co-culture. […] Cell viability is reported both mono and co-culture models.
# Colon cancer organoid [3] = test: Optimized Dual-Glo assay to identify co-culture induced drug vulnerabilities using donated chemical probes and chemogenomics kinase set in O20 CRC organoid and F20 CAF mono and co-culture. […] Cell viability is reported both mono and co-culture models.
# [4] = Culture type Co-Culture, Transduced with Lucferase2-P2A-EGFP lentivirus
# [5] = Culture type Co-Culture, Transduced with Renilla-dsRed lentivirus
# [6] = Culture type Mono-Culture, Transduced with Lucferase2-P2A-EGFP lentivirus
# [7] = Culture type Mono-Culture, Transduced with Renilla-dsRed lentivirus
SMILES,Cell Viability (Colon cancer organoid [1]; [4]),Cell Viability (Colon cancer organoid [1]; [5]),Cell Viability (Colon cancer organoid [1]; [6]),Cell Viability (Colon cancer organoid [1]; [7]),Cell Viability (Colon cancer organoid [2]; [4]),Cell Viability (Colon cancer organoid [2]; [5]),Cell Viability (Colon cancer organoid [2]; [6]),Cell Viability (Colon cancer organoid [2]; [7]),Cell Viability (Colon cancer organoid [3]; [4]),Cell Viability (Colon cancer organoid [3]; [5]),Cell Viability (Colon cancer organoid [3]; [6]),Cell Viability (Colon cancer organoid [3]; [7])
Cc1cnc(-c2cc(Cl)ccc2F)cc1-n1c(=O)n(CC(N)=O)c2ccccc21 [Al11],93.5042%,89.0527%,114.229%,91.7467%,79.8154%,66.9379%,96.9616%,102.254%,99.824%,109.542%,113.608%,109.646%
CN([C@@H]1CCc2c(CC(=O)O)c3cc(S(C)(=O)=O)ccc3n2C1)S(=O)(=O)c1ccc(F)cc1 [CRTH2-negative-control],89.9276%,115.062%,117.685%,97.6178%,107.688%,114.368%,103.342%,104.475%,107.561%,126.69%,138.147%,108.987%
Cc1noc(C)c1-c1cnc2c(-c3ccc(C(=O)O)cc3)cn([C@@H](C)c3ccccn3)c2c1 [PLX-51107],32.5617%,348.195%,30.1969%,207.472%,26.8486%,312.702%,23.3668%,265.011%,17.6563%,177.825%,24.073%,120.563%
CCc1cc2cc(NS(=O)(=O)c3ccc(C#N)cc3)ccc2n(CC)c1=O,89.9895%,94.6782%,98.1459%,101.615%,88.2132%,102.933%,126.115%,101.813%,195.321%,99.0217%,112.066%,92.4545%
CC(C)Oc1ccc(-c2c[nH]cc2CN(C)CCO)cc1,119.367%,107.888%,90.5544%,99.1586%,112.392%,114.959%,84.6605%,116.102%,114.035%,121.653%,114.538%,100.305%
N#Cc1cnc(Nc2cc(NC[C@H]3CNCCO3)c(C(F)(F)F)cn2)cn1 [SRA-737],41.9223%,191.286%,52.6101%,101.86%,89.9461%,120.027%,70.513%,117.124%,103.278%,133.202%,58.7772%,96.135%
CCCc1cc(C)[nH]c(=O)c1CNC(=O)c1cc(-c2ccnc(N3CCN(C)CC3)c2)cc2c1cnn2C(C)C,90.4891%,115.464%,111.507%,115.721%,75.6598%,125.188%,109.33%,104.205%,55.9892%,146.305%,86.0915%,120.133%
CN(C)C(=O)Cn1cc(-c2ccc(-c3nnc4ccccn34)cc2)cn1,93.0602%,86.1026%,137.129%,87.3202%,105.212%,110.192%,69.5948%,88.4504%,165.558%,52.6743%,140.63%,85.2439%
Nc1ncnc2c1ccn2[C@@H]1O[C@H]([C@H](O)c2ccccc2)[C@@H](O)[C@H]1O,19.223%,140.259%,27.9797%,80.8035%,22.7938%,108.338%,39.3105%,99.7719%,28.437%,179.519%,41.1766%,89.3267%
